Test results as given in article PMC12641781, “Insights into Hepatic, Neuronal, and hERG Channel Safety of Plant-Derived Active Compounds” (Journal of Xenobiotics, 2025).
In brackets after ≈: the same amount, converted by molar mass. Read-outs that look alike come from different tables or passages of the source. Blank lines part the entries; values can stand above or below the compound they belong to.

Columns and labels:
[1] = dose of 10 g, healthy volunteers; cited from earlier work
HepG2 cells [2] = assay: Hepatocellular viability assay (resazurin reduction); format: cell-based, Human; conditions: for IC50: Homo sapiens, read-out: IC50, HepG2 cell viability
Procedure: HepG2 cells (1.5 × 10^4 cells per 100 µL) were seeded into black, clear-bottom 96-well plates and incubated at 37 °C with 5% CO2 for 24 h. The test compounds were prepared in complete media at final concentrations of 0.01, 0.1, 1, 10, and 100 μM and added to each well. For the negative control, 0.2% (v/v) DMSO was used to represent maximum viability, while 0.01% (v/v) Triton X-100 was used as the positive control for minimum viability. The plates were incubated at 37 °C under 5% CO2. After 20 h of incubation, 20% (v/v) CellTiter-Blue Cell Resazurin reagent was added to each well, followed by an additional 2–4 h of incubation. Fluorescence intensity, indicating resorufin levels, was measured at 590 nm using a Synergy H1 reader was obtained from Agilent Technologies (Santa Clara, CA, USA). Each data point was normalized based on the maximum and minimum cell viability data and expressed as % Relative viability using the following formula: % Relative viability=(Experimental data−Minimal viability data)/(Maximal viability data−Minimal viability data)×100

[3] = test system: Undifferentiated ReNcell VM cells; assay: Neuronal viability assay, undifferentiated cells (resazurin); format: cell-based, human; conditions: for IC50: 24 h, read-out: IC50, undifferentiated ReNcell VM cell viability; for Inhibition of undifferentiated ReNcell NSC viability: at concentrations up to 100 µM, compared to Triton X-100
Procedure: Undifferentiated ReNcell VM cells were seeded into Matrigel®-coated black, clear-bottom 96-well plates at densities of 1.5 × 10^4 per well. The cells were maintained in ReNcell NSC Maintenance Media (Merck Millipore, MA, USA), supplemented with 10% EGF and 1% penicillin/streptomycin, and were incubated at 37 °C with 5% CO2 for 24 h.
(§1) Differentiated ReNcell VM cells were seeded into Matrigel®-coated black, clear-bottom 96-well plates at densities of 3.0 × 10^4 per well. The ReNcell VM cells were incubated at 37 °C with 5% CO2 in the ReNcell Maintenance Media (Merck Millipore, MA, USA) without growth factor. The media was changed every two days for three weeks. Both cell types were treated with test compounds at 0.01, 0.1, 1, 10, and 100 μM. DMSO was used as the control for maximum cell viability, and Triton X-100 was the control for minimum viability. After 20 h of incubation at 37 °C with 5% CO2. Cell viability was assessed using the CellTiter-Blue® Cell Resazurin reagent.

HepG2 cells [4] = test system: HepG2 cells; design: method as in PMID 29348769, PMID 31388314, PMID 40952293; conditions: cited from earlier work
[5] = test system: Differentiated ReNcell VM cells; assay: Neuronal viability assay, differentiated cells (resazurin); format: cell-based; conditions: Homo sapiens, read-out: IC50, differentiated ReNcell VM cell viability
Procedure: ReNcell VM cells were seeded into Matrigel®-coated black, clear-bottom 96-well plates at a density of 3.0 × 10^4 cells per well for differentiation assays. The cells were maintained in ReNcell NSC Maintenance Medium (Merck Millipore, Burlington, MA, USA) without growth factors to induce differentiation. The culture medium was changed every two days for three weeks.
as §1

[6] = test system: triple-negative breast cancer (TNBC) cells; design: method as in PMID 29348769, PMID 31388314, PMID 40952293; conditions: cited from earlier work
hERG = target: T1, hERG (Homo sapiens, UniProt Q12809); assay: hERG inhibition assay by automated patch-clamp electrophysiology in hERG-overexpressing HEK293 cells; format: cell-based
T1 construct: host or cells: HEK293 cells stably overexpressing hERG
T1 sequence (Q12809 whole entry): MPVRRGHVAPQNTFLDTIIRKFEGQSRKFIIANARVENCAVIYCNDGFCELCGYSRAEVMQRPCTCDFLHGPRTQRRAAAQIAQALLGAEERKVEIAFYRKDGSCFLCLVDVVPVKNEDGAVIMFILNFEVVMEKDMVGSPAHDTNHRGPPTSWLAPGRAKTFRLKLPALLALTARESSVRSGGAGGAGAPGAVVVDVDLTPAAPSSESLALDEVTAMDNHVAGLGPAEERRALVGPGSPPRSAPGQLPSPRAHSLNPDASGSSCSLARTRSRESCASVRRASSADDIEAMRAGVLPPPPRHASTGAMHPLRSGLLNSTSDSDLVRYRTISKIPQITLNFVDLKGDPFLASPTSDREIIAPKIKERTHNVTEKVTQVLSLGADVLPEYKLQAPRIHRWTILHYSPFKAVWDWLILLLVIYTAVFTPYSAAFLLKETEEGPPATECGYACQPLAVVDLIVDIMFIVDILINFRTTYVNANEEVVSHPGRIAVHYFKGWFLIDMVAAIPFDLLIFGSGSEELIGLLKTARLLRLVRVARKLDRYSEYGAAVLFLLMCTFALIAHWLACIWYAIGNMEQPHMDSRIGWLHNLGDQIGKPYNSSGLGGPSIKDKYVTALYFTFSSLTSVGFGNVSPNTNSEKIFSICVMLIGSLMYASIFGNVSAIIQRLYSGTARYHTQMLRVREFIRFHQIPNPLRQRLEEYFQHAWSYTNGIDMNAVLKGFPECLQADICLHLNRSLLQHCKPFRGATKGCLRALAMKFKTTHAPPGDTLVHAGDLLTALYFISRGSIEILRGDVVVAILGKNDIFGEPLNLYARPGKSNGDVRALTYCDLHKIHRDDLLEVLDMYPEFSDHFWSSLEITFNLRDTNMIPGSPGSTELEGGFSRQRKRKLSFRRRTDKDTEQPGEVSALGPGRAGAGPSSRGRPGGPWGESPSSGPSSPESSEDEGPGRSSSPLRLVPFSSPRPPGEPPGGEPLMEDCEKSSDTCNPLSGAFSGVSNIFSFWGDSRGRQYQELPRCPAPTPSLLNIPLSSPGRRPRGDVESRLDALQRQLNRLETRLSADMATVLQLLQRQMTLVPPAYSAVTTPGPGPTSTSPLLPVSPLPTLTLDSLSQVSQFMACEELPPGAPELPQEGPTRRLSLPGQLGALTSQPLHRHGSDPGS
Procedure: hERG channel inhibition assay was performed using patch-clamp electrophysiology. HEK293 cells stably overexpressing hERG channels (Eurofins Scientific, Luxembourg) were cultured in Dulbecco’s Modified Eagle Medium F-12 (GIBCO, Carlsbad, CA, USA) supplemented with 10% (v/v) fetal bovine serum (FBS) and 1% penicillin/streptomycin at 37 °C with 5% CO2 until reaching approximately 80% confluency. Cells were then subcultured using trypsin (HyClone, Marlborough, MA, USA), to enzymatically detach adherent HEK293 cells, centrifuged, and resuspended in the External standard buffer (Nanion Technologies, Munich, Germany).
A gigaohm seal was formed after cell seeding in the NPC-16 chip (Nanion Technologies) wells. Brief suction pulses were applied to achieve whole-cell configuration. The hERG channel activity was assessed using a voltage protocol consisting of steps to −80 mV, −40 mV, +40 mV, −40 mV, and back to −80 mV, triggering tail currents. Each well’s peak hERG tail current served as the baseline activity level. To evaluate the inhibitory effects of the six tested compounds, their stock solutions ([…]) were diluted with the external standard buffer to final concentrations of 100 µM, 10 µM, 1 µM, 0.1 µM, and 0.01 µM, and automatically applied to the wells. Subsequently, hERG channel activity was measured again using the same voltage protocol. The relative changes in hERG activity induced by the compounds were calculated and expressed as percentages using the following formula:% hERG activity = (Peak hERG tail current after compound treatment/Peak hERG tail current before compound treatment) × 100

[7] = AL single oral dose of 1000 mg/kg body weight (equivalent to 48.4 mg of ATD), healthy Thai subjects; cited from earlier work
[8] = single oral dose of rikkunshito (7.5 g/day), healthy Japanese subjects; cited from earlier work
[9] = rats, oral dose of 100 mg/kg body weight; read-out: plasma Cmax; cited from earlier work
CYP2D6 = test system: CYP2D6; design: method as in PMID 37553989; conditions: EPMC as major active compound of the Dephrungsith formulation; cited from earlier work
CYP2E1 = test system: CYP2E1; design: method as in PMID 24146513; conditions: in the Yahom Tultavai formulation; cited from earlier work
CYP1A1 = test system: CYP1A1; design: method as in PMID 24146513; conditions: in the Yahom Tultavai formulation; cited from earlier work
CYP1A2 = test system: CYP1A2; design: method as in PMID 24146513; conditions: in the Yahom Tultavai formulation; cited from earlier work
[10] = design: method as in PMID 18039808; conditions: oral 500 mg/kg dose in animals; cited from earlier work
[11] = HepG2 cells, 24 h, resazurin assay, 0.01-100 μM
[12] = Homo sapiens, ReNcell VM, undifferentiated ReNcell VM cells, resazurin assay, 0.01-100 μM
[13] = differentiated ReNcell VM cells (three weeks without growth factor), 24 h, resazurin assay
[14] = hERG-overexpressing HEK293 cells, peak tail current, automated patch clamp, read-out: IC50, hERG channel activity
[15] = Homo sapiens, undifferentiated ReNcell VM cells, resazurin assay, 0.01-100 μM

Compound: COc1cc(/C=C/C(=O)CC(=O)/C=C/c2ccc(O)c(OC)c2)ccc1O [CUR, Curcumin]
plasma Cmax [1]: 2300 ng/mL
IC50 (HepG2 cells [2]; [11]): 21 µM
IC50 [3, 12]: 21.1 µM
IC50 ([3]; undifferentiated ReNcell VM cells, resazurin assay, 0.01-100 μM): 21.2 µM

Compound: C/C=C/C#CC#C/C=C/c1ccco1 [ATD, Atractylodin]
IC50, inhibitory effects on HepG2 cells (HepG2 cells [4]): 26.19 µg/mL (≈ 144 µM)
IC50 ([5]; ReNcell VM): > 100 µM
IC50, triple-negative breast cancer (TNBC) cells [6]: 92.11 µg/mL (≈ 505 µM)
IC50 (hERG): 26.4 µM
IC50 (hERG; human): 22.4 µM
IC50 (HepG2 cells [2]; HepG2, 24 h): > 100 µM
maximal plasma concentration (Cmax) [7]: 50.35 (13.8–52.90) ng/mL
maximal plasma concentration (Cmax) [8]: 0.002 to 20 ng/mL
IC50 ([3]; Homo sapiens, ReNcell VM): > 100 µM
Inhibition of undifferentiated ReNcell NSC viability [3]: did not inhibit

Compound: COc1c(O)cc2oc3cc(O)c(CC=C(C)C)c(O)c3c(=O)c2c1CC=C(C)C [αMG, α-mangostin]
IC50 [5, 13]: 6 µM
IC50 (hERG; [14]): > 100 µM
Cmax [9]: 1380 nM

Compound: triton X-100 [reference compound]
HepG2 cell viability compared to the 0.2% DMSO-treated group (HepG2 cells [2]): significant decrease in cell viability

IC50 (HepG2 cells [2]; HepG2, 24 h, HepG2 cells, 24 h, resazurin assay, 0.01-100 μM): > 100 µM
Compound: CCOC(=O)/C=C/c1ccc(OC)cc1 [EPMC, ethyl-p-methoxycinnamate]
CYP2D6 inhibition in vitro (CYP2D6): potently inhibits
CYP2E1 inhibition in vivo (CYP2E1): inhibits
IC50 [5, 13]: > 100 µM
CYP1A1 inhibition in vivo (CYP1A1): inhibits
IC50 (hERG; [14]): 53 µM
CYP1A2 inhibition in vivo (CYP1A2): inhibits
IC50 [3, 12]: > 100 µM
Inhibition of undifferentiated ReNcell NSC viability [3]: did not inhibit

IC50 (HepG2 cells [2]; [11]): > 100 µM
Compound: C=C1CCC[C@]2(C)CC[C@@H](C(C)(C)O)C[C@@H]12 [BEU, β-eudesmol]
IC50 [5, 13]: > 100 µM
IC50 (hERG; [14]): 33.4 µM
IC50 [3, 15]: > 100 µM
Inhibition of undifferentiated ReNcell NSC viability [3]: did not inhibit

IC50 (HepG2 cells [2]; [11]): > 100 µM
Compound: CCC/C=C1\OC(=O)C2=C1CCC=C2 [LIG, ligustilide]
plasma Cmax [10]: 660 ng/mL
IC50 [5, 13]: > 100 µM
IC50 (hERG; [14]): 37.3 µM
IC50 [3, 15]: > 100 µM
Inhibition of undifferentiated ReNcell NSC viability [3]: did not inhibit
